Data as given in patent publication US11406642B2, “DNP and DNP prodrug treatment of neuromuscular, neurodegenerative, autoimmune, developmental, traumatic brain injury, concussion, dry eye disease, hearing loss and/or metabolic diseases” (priority 2016, dated 2022).
Read-outs that look alike come from different tables or passages of the source.

Assays:
[1] = Plasma pharmacokinetics of 2,4-DNP, i.v. and oral; format: in vivo, Sprague-Dawley male rats
Protocol: All procedures that involved the use of rats were conducted in accordance with the guidelines set forth by the University of Arkansas for Medical Sciences (UAMS) Institutional Animal Care and Use Committee established by the National Institutes of Health's Guide for the Care and Use of Laboratory Animals (1996). Male Sprague-Dawley rats weighing 250-300 grams were housed three per cage with ad libitum access to food and water in the Division of Laboratory Animal Resources, UAMS. Rats were anesthetized with isofluorane (2-5%)/oxygen (1.5-2.0 L/min) and surgically implanted with cannulae in the jugular (i.v. dosing) and femoral (blood sampling) veins. […] Following appropriate evidence of successful recovery from surgery, IV or oral dosing was performed and blood samples (0.15 mL) were collected at 0, 5, 15, 30, 45, 60, 120, 240 and 480 min. Plasma samples were prepared and analysis was run using a LC/MS/MS spectrometry.
2,4-DNP was dissolved in a phosphate-saline buffer solution, pH 7.4 containing 5% DMSO and 20% PEG-400 and filtered through a 0.2-μm filter. For the oral route, rats were gavaged with 5 mg/kg in a total volume of 8 mL/kg from a stock solution containing 0.625/mL of 2,4-DNP. For the i.v. injection, a total volume of 0.8 mL/kg was used at a dose of 1 mg/kg from a stock solution containing 1.25 mg/mL.
Jugular and femoral vein-catheterized Sprague-Dawley male rats (weights 250-300 g) were treated with 2,4-DNP at a single oral dose of 5 mg/kg (n=4) or a single i.v. dose of 1 mg/kg (n=3). For each i.v. and oral experiment, blood samples (0.15 mL) were collected at 0, 5, 15, 30, 45, 60, 120, 240 and 480 min. The withdrawn blood was replaced with heparinized saline (0.15 mL). Blood samples were centrifuged at 10,000 rpm for 10 min at room temperature, and plasma samples were prepared and analysis was run using a sensitive LC/MS/MS spectrometry method (see below).
To isolate the analytes from rat plasma, 50 μL of control or treated plasma fortified with 10 μL of 2,4-DNP-d3 (10 μg/mL) as an internal standard to which 0.3 mL of methanol followed by 0.3 mL of acetonitrile was added. The mixture was vortex-mixed for 30 s and centrifuged for 10 min at 10,000 rpm at room temperature. The supernatant was transferred into 5 mL glass tubes and evaporated to dryness at 37° C. under nitrogen gas. The pellet was reconstituted with 50 μL of acetonitrile, vortex-mixed for 30 sec, followed by sonication for 1 min. Following centrifugation at 1000 rpm for 10 min at room temperature, 5 μL of the supernatant was then injected onto the column, and analytes were quantified by a LC/MS/MS spectrometry.
1—Plasma concentrations of 2,4-DNP after a single i.v. injection of 2,4-DNP of 1 mg/kg or 5 mg/kg oral administration; 2—Plasma concentrations of II-38 and 2,4-DNP-released from II-38 after an i.v. injection 1.6 mg/kg of II-38 eq. to 1 mg/kg of 2,4-DNP or an oral dose of 8, 40 and 80 mg/kg of II-38 eq. to 5, 25 and 50 mg/kg of 2,4-DNP, respectively. The mass spectrometer was an Agilent quadrupole mass spectrometer operated in the multiple reaction monitoring (MRM) mode. 2,4-DNP-d3 was used as an internal standard. 2,4-DNP, II-38 and 2,4-DNP-d3 were separated using an Alltima C18 column, 5 μm, 3.2×150 mm (Grace Discovery Sciences, IL, USA) equipped with a guard column: Alltima C18, 5 μm, 4.6×7.5 mm (Grace Discovery Sciences, IL, USA). The mobile phase consists of water with 0.005% formic acid as solvent A and acetonitrile with 0.005% formic acid as solvent B. For analysis of 2,4-DNP, II-38 and 2,4-DNP-d3 compounds, the separation was achieved using a gradient of 10 to 90% solvent B in 3.5 min, which was maintained at 90% B for the next 3.30 min and then equilibrated back to the initial conditions over 3.20 min. The flow rate was 0.8 mL/min with a column temperature of 30° C. The sample injection volume was 5 μL. […]

spiny neurons = test: Model of Huntington's disease; format: in vivo; settings: treatment for over 17-weeks
Description: In one embodiment, the invention provides compositions and methods for treating Huntington's disease. […] DNP should prevent muscle loss since it reduces mitochondrial osmotic swelling by reducing intra-mitochondrial calcium concentration and inducing BDNF, which is a myokine (muscle protectant) outside of the brain.

cerebral infarct = settings: treatment 3-hours post-ischemia; cited from earlier work
[2] = Stability in simulated intestinal fluid (SIF), pH 6.8; format: in vitro ADME; settings: pH 6.8, 37° C.
Protocol: GI: Stability in simulated intestinal fluid (USP, 37° C.)
HPLC analysis was carried out on an Agilent 1200 Infinity Series Quatpump, equipped with a photodiode array detector and a computer integrating apparatus. An Inertsil ODS-3 column, C18, 5 μm, 4.6×50 mm (GL Science Inc. Japan) protected with a guard column: Alltima C18, 5 μm, 4.6×7.5 mm (Grace Discovery Sciences, IL, USA) was used as the stationary phase. An isocratic method with a mobile phase consisting of water/acetonitrile (70:30) containing 0.05% formic acid in each was used. A flow rate of 0.9 mL/min was used and detection was carried out at a UV wavelength of 250 nm.
Formulation of II-38 in SIF buffer, pH 6.8: to formulate 1 mg/mL of II-38 in SIF, 2.6 mg of II-38 was dissolved in 0.13 mL of DMSO (i.e. 5%) and titrated slowly and gradually to a total volume of 2.47 mL of preheated SIF (Table 4) in a cell diffusion chamber preheated to 37° C. The solution was mixed for 30 sec every half an hour using magnetic stirrer. Samples of 20 μL (20 μg/mL of II-38) were collected at 0, 0.5, 1, 2, 4, 6 and 8 h (FIGS. 12A and 12B). Each sample was mixed with acetonitrile QS to 1 mL, vortex-mixed for 30 sec and centrifuged at 10,000 rpm at room temp. A volume of 10 μL of the supernatant was injected into the HPLC spectrometer (FIG. 11).

[3] = 2,4-DNP single oral dose 5 mg/kg, n = 4, 5 mg/kg
[4] = 2,4-DNP single oral dose 5 mg/kg, n = 4, listed as DNP, 5 mg/kg

SMILES | AUC [1, 3] | t1/2 [1, 3] | AUC [1, 4] | Cmax [1, 4] | Tmax [1, 4] | t1/2 [1, 4] | half-life ([1]; male, Sprague-Dawley, rat, plasma, iv, 1 mg/kg, 2,4-DNP single i.v. dose 1 mg/kg, n = 3) | Cmax ([1]; male, Sprague-Dawley, rat, plasma, iv, 1 mg/kg, 2,4-DNP single i.v. dose 1 mg/kg, n = 3, read-out: Cmax) | clearance ([1]; male, Sprague-Dawley, rat, plasma, iv, 2,4-DNP single i.v. dose 1 mg/kg, n = 3) | AUC ([1]; male, Sprague-Dawley, rat, plasma, iv, 2,4-DNP single i.v. dose 1 mg/kg, n = 3, read-out: AUC (converted)) | Vd ([1]; male, Sprague-Dawley, rat, plasma, iv, 2,4-DNP single i.v. dose 1 mg/kg, n = 3, read-out: Vss) | half-life ([1]; male, Sprague-Dawley, rat, plasma, po, 5 mg/kg, 2,4-DNP single oral dose 5 mg/kg, n = 4) | Cmax ([1]; male, Sprague-Dawley, rat, plasma, po, 5 mg/kg, 2,4-DNP single oral dose 5 mg/kg, n = 4, read-out: Cmax) | Tmax ([1]; male, Sprague-Dawley, rat, plasma, po, 5 mg/kg, 2,4-DNP single oral dose 5 mg/kg, n = 4, read-out: tmax (converted)) | bioavailability ([1]; male, Sprague-Dawley, rat, plasma, 2,4-DNP single oral dose 5 mg/kg, n = 4) | AUC ([1]; male, Sprague-Dawley, rat, plasma, 2,4-DNP single oral dose 5 mg/kg, n = 4, read-out: AUC (converted)) | effect on spiny neurons (spiny neurons) | reduction of cerebral infarct volume (cerebral infarct) | stability in SIF [2]
O=[N+]([O-])c1ccc(O)c([N+](=O)[O-])c1 [2,4-DNP, 2,4-dinitrophenol] | 13288.0 ± 1634.1 µg·min/mL | 2.272 ± 0.182 h | 13288 µg·min/mL | 50 µg/mL | 0.633 h | 2.27 h | 1.5 ± 0.165 h | 11.5 ± 6.2 µg/mL | 1.2 ± 0.6 mL/min/kg | 1350 µg·min/mL | 0.161 ± 0.135 L/kg | 2.27 ± 0.182 h | 50.1 ± 7.4 µg/mL | 0.625 h | 65.8 ± 11.4% | 13300 µg·min/mL | protection on the spiny neurons | 40% | 
O=C(Oc1ccc([N+](=O)[O-])cc1[N+](=O)[O-])N1CCOCC1 [II-38, 2,4-Dinitrophenyl morpholine-4-carboxylate] |  |  |  |  |  |  |  |  |  |  |  |  |  |  |  |  |  |  | stable
